Reference: patent publication US11945822B2, “Pyrazolo-triazine and/or pyrazolo-pxrimidine derivatives as selective inhibitor of cyclin dependent kinase” (QURIENT CO., LTD., priority 2018, dated 2024)
pIC50: −log10 of the molar value.

What was measured:
CDK1/Cyclin B = target: T1, CDK1/Cyclin B (Homo sapiens, UniProt P06493); experiment: Enzymatic assay for CDK1 (FRET based LANCE Ultra kinase assay); assay type: biochemical; settings: read-out: CDK1 enzymatic activity (IC50 range)
T1 construct: purchased Invitrogen PR4768C
T1 sequence (P06493 whole entry): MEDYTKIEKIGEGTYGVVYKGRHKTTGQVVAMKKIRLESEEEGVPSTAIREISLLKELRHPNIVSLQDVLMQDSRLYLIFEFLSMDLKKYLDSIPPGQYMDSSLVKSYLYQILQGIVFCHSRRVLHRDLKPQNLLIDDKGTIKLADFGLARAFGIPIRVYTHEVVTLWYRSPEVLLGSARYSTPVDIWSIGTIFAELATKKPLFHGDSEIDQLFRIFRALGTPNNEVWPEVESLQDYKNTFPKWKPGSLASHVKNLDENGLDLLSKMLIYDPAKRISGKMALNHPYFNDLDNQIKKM
T1 sequence (P14635 whole entry partner): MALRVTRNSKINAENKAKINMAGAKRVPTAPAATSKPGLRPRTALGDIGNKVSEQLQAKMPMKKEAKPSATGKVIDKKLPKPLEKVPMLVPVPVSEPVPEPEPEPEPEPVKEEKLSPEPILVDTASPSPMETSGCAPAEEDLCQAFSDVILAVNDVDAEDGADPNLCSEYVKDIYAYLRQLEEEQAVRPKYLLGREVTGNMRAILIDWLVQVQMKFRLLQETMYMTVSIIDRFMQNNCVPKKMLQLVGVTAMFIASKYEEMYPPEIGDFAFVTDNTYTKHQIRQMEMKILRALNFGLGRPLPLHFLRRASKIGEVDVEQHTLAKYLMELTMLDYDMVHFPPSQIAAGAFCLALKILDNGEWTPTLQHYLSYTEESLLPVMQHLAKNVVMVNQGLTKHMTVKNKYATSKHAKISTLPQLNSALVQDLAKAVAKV
Summary of the method: (§1)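 TR-FRET (LANCE Ultra) kinase assay at ATP Km, ULight-MBP peptide substrate (68 nM), 8-dose 4-fold compound series in DMSO. Enzymes: […]; 60 min at 23° C., stopped with EDTA plus Eu-anti-phospho-MBP antibody, read 665/615 nm after 60 min.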

CDK2/Cyclin A = target: T2, CDK2/Cyclin A (Homo sapiens, UniProt P24941); experiment: Enzymatic assay for CDK2 (FRET based LANCE Ultra kinase assay); assay type: biochemical; settings: read-out: CDK2 enzymatic activity (IC50 range)
T2 construct: purchased Invitrogen PV6290
Summary of the method: as §1

CDK5/p25 = target: T3, CDK5/p25 (Homo sapiens, UniProt Q00535); experiment: Enzymatic assay for CDK5 (FRET based LANCE Ultra kinase assay); assay type: biochemical; settings: read-out: CDK5 enzymatic activity (IC50 range)
T3 construct: purchased Invitrogen PR8543B
T3 sequence (Q00535 whole entry): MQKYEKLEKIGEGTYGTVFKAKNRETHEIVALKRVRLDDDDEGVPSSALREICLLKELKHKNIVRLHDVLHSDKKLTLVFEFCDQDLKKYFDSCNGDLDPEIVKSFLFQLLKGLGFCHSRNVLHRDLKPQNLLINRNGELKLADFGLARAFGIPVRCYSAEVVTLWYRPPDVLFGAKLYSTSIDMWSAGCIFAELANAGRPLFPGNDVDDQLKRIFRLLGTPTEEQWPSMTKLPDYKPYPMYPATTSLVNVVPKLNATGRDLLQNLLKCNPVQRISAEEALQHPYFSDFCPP
T3 sequence (Q15078 99-307 partner limits assumed): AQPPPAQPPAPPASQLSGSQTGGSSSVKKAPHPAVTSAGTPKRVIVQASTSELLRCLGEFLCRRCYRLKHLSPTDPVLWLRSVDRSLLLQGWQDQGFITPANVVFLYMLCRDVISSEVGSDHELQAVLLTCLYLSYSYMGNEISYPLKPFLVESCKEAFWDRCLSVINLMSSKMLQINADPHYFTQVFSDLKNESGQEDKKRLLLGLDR
Summary of the method: as §1

CDK7/Cyclin H/MNAT1 = target: T4, CDK7/Cyclin H/MNAT1 (Homo sapiens, UniProt P50613); experiment: Enzymatic assay for CDK7 (FRET based LANCE Ultra kinase assay); assay type: biochemical; settings: for pIC50: read-out: CDK7 enzymatic activity (IC50 range)
T4 construct: purchased Invitrogen PR6749B
T4 sequence (P50613 whole entry): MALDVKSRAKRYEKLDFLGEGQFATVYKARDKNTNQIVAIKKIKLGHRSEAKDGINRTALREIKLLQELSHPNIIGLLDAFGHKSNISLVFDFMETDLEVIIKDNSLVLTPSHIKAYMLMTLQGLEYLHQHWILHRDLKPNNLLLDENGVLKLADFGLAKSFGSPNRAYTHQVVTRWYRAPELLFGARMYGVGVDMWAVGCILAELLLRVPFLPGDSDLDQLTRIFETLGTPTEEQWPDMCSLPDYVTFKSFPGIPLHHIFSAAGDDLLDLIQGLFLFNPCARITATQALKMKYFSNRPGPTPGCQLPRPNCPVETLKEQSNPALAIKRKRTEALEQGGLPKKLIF
T4 sequence (P51946 whole entry partner): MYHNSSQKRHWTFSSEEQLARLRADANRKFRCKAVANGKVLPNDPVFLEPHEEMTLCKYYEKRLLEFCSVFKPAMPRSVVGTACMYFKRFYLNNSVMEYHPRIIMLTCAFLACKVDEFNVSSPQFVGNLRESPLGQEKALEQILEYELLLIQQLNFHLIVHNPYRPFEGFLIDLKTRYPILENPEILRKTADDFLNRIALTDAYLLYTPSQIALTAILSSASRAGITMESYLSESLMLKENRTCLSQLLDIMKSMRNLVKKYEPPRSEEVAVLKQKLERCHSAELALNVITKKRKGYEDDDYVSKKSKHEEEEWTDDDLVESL
T4 sequence (P51948 whole entry partner): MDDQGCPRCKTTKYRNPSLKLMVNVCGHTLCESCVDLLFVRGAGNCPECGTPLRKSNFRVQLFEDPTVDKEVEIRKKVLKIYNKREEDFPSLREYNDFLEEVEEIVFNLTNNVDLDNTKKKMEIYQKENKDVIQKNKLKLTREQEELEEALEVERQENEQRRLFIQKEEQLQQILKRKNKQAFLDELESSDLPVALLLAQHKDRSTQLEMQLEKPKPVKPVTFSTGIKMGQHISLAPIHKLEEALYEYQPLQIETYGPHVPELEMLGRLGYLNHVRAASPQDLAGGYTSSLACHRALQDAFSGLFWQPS
Summary of the method: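 LANCE Ultra TR-FRET kinase assay using a ULight-labeled peptide substrate and a Eu-labeled anti-phospho antibody, with ATP at its Km. Purified CDK/cyclin complex was added to compound after brief centrifugation.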

HCT116 = experiment: Cellular HCT116 viability assay (CellTiter-Glo, 72 hours); assay type: cell-based; settings: Homo sapiens, HCT-116
Summary of the method: (§2)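 Steps: seed cells at per-line density; add compound, DMSO vehicle kept under 0.1% final; incubate 72 h, 37 °C, 5% CO2; lyse with CellTiter-Glo and read luminescence; run in duplicate.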

H460 = experiment: Cellular H460 viability assay (CellTiter-Glo, 72 hours); assay type: cell-based; settings: Homo sapiens, NCI-H460
Summary of the method: as §2

MM.1S = experiment: Cellular MM.1S viability assay (CellTiter-Glo, 72 hours); assay type: cell-based; settings: Homo sapiens, MM1.S
Excerpt: Human T-cell acute lymphoblastic leukemia cell line, MOLT-4 (ATCC, Cat #CRL-1582), Human multiple myeloma cell line, RPMI-8226 (Invitrogen, Cat #22400-089) and MM.1S (ATCC, Cat #CRL-2974), NSCLC (Non-small cell lung cancer) cell line H460 (ATCC, Cat #HTB-177), Human colon colorectal carcinoma cell line HCT116 (ATCC, Cat #CCL-247), Human acute monocytic leukemia cell line MV4-11 (ATCC, Cat #CRL-9591), OVCAR-3 (ATCC, Cat #HTB-161) and A2780 (ECACC, Cat #93112519) were obtained from ATCC. Cells were grown in RPMI-1640 media (Invitrogen, Cat #22400-089) supplemented with 10% FBS (Invitrogen, Cat #10099141) and 1% penicillin/streptomycin (Invitrogen, Cat #15070063) and cultured at 37° C., 5% CO2 in a humidified chamber. All cell lines were routinely tested for mycoplasma.
The effect of the CDK7 inhibitor to inhibit the growth of target cancer cells was evaluated through the 72 hours time period of viability assay. Briefly, the candidate cell line ware plated in 96 well plate at the following density of cells respectively. 1×10^4 cells/well for MOLT-4, RPMI-8226, MV4-11 and MM.1S, 5×10^3 for H460, HCT116 and OVCAR-3 and IX 10^3 for A2780. After 24 hours, the cells were treated with various concentrations of the compound (ranging from 0.0015 uM to 10 uM). DMSO solvent without compound served as a control and final DMSO concentration less than 0.1%. After 72 hours of incubation at 37° C., 5% CO2 incubator, cells were analyzed for the viability using the CellTiter-Glo Luminescent Cell Viability Assay (Promega, Cat #G7570). All viability assays were performed in duplicate and Luminescence was read using an Envision (Perkin Elmer, USA). Data was analyzed using XLfit software.

MV4-11 = experiment: Cellular MV4-11 viability assay (CellTiter-Glo, 72 hours); assay type: cell-based; settings: Homo sapiens
Summary of the method: as §2

Structure (SMILES)	pIC50 (CDK1/Cyclin B)	pIC50 (CDK2/Cyclin A)	pIC50 (CDK5/p25)	CDK1/CDK7: Selectivity of CDK7 inhibition over CDK1 inhibition (CDK7/Cyclin H/MNAT1)	CDK2/CDK7: Selectivity of CDK7 inhibition over CDK2 inhibition (CDK7/Cyclin H/MNAT1)	CDK5/CDK7: Selectivity of CDK7 inhibition over CDK5 inhibition (CDK7/Cyclin H/MNAT1)	pIC50 (CDK7/Cyclin H/MNAT1)	pIC50 (HCT116)	pIC50 (H460)	pIC50 (MM.1S)	pIC50 (MV4-11)
CNC(=O)c1cc2cn(-c3ccccc3CNc3nc(N4CCC(N)CC4)nc4c(C(C)C)cnn34)nc2cc1C [Compound 160]	< 6.00	6.00 to 7.00	6.00 to 7.00	A (A=greater than 200 fold)	B (B=less than 200 fold, but greater than 20 fold)	B (B=less than 200 fold, but greater than 20 fold)	> 7.00	> 6.00	> 6.00	≥ 6.00	> 6.00
Cc1cccc(-c2cc3ccccc3[nH]2)c1CNc1nc(N2CCC(N)CC2)nc2c(C(C)C)cnn12 [Compound 184]	< 6.00	< 6.00	6.00 to 7.00	A (A=greater than 200 fold)	A (A=greater than 200 fold)	B (B=less than 200 fold, but greater than 20 fold)	> 7.00	> 6.00	> 6.00	≥ 6.00	> 6.00
CC(C)c1cnn2c(NCc3ccccc3-n3ccc(C(=O)NC4CCOCC4)n3)nc(N3CCC(N)CC3)nc12 [Compound 177]	6.00 to 7.00	6.00 to 7.00	> 7.00	A (A=greater than 200 fold)	B (B=less than 200 fold, but greater than 20 fold)	C (C=less than 20 fold)	> 7.00	> 6.00	> 6.00	≥ 6.00	> 6.00
CC(C)c1cnn2c(NCc3c(Cl)cccc3-n3cc4c(n3)CCNC4=O)nc(N3CCC(N)CC3)nc12 [Compound 189]	< 6.00	< 6.00	6.00 to 7.00	A (A=greater than 200 fold)	A (A=greater than 200 fold)	B (B=less than 200 fold, but greater than 20 fold)	> 7.00	> 6.00	> 6.00	≥ 6.00	> 6.00
CC(C)c1cnn2c(NCc3ccccc3-n3cc(N4CCNCC4)cn3)nc(N3CCC(N)CC3)nc12 [Compound 180]	6.00 to 7.00	6.00 to 7.00	> 7.00	B (B=less than 200 fold, but greater than 20 fold)	B (B=less than 200 fold, but greater than 20 fold)	C (C=less than 20 fold)	> 7.00	> 6.00	> 6.00	≥ 6.00	> 6.00
CNC(=O)c1ccc2nc(-c3ccccc3CNc3nc(N4CCC(N)CC4)nc4c(C(C)C)cnn34)cnc2c1 [Compound 153]	< 6.00	< 6.00	6.00 to 7.00	A (A=greater than 200 fold)	A (A=greater than 200 fold)	B (B=less than 200 fold, but greater than 20 fold)	> 7.00	> 6.00	> 6.00	≥ 6.00	> 6.00
CNC(=O)c1ccn(-c2cccc(Cl)c2CNc2nc(N3CCC(N)CC3)nc3c(C(C)C)cnn23)n1 [Compound 197]	< 6.00	< 6.00	6.00 to 7.00	A (A=greater than 200 fold)	A (A=greater than 200 fold)	B (B=less than 200 fold, but greater than 20 fold)	> 7.00	> 6.00	> 6.00	≥ 6.00	> 6.00
CC(C)c1cnn2c(NCc3c(Cl)cccc3-c3ccn(C4CCNCC4)n3)nc(N3CCC(N)CC3)nc12 [Compound 195]	< 6.00	< 6.00	6.00 to 7.00	A (A=greater than 200 fold)	A (A=greater than 200 fold)	A (A=greater than 200 fold)	> 7.00	> 6.00	> 6.00	≥ 6.00	> 6.00
CC(C)c1cnn2c(NCc3c(Cl)cccc3-n3ccc(C(=O)N4CCNCC4)n3)nc(N3CCC(N)CC3)nc12 [Compound 198]	< 6.00	< 6.00	6.00 to 7.00	A (A=greater than 200 fold)	A (A=greater than 200 fold)	A (A=greater than 200 fold)	> 7.00	> 6.00	5.00 to 6.00	≥ 6.00	> 6.00
CC(=O)NC1CCc2nn(-c3ccccc3CNc3nc(N4CCC(N)CC4)nc4c(C(C)C)cnn34)cc2C1 (centres unmarked) [Compound 150]	< 6.00	< 6.00	6.00 to 7.00	A (A=greater than 200 fold)	A (A=greater than 200 fold)	B (B=less than 200 fold, but greater than 20 fold)	> 7.00	> 6.00	> 6.00	≥ 6.00	> 6.00
